Columns and labels:
[1] = test system: H520 cells; experiment: MTT cell growth inhibition assay; assay type: cell-based; conditions: Homo sapiens, NCI-H520, H520 cells (negative EGFR), 48 h
Description: (§1) NSCLC having EGFR with L858R mutation is also respond to EGFR kinase inhibitors. H3255 cells expressing EGFR L858R mutant is sensitive to EGFR kinase inhibitors. In order to measure the sensitivity of five NSCLC cell lines to F-IRS, […] assay was performed. Tumor cells were plated at a density of 2 × 10^3 cells/well into 96-well plates in RPMI 1640 with 10% FBS. Cells were kept in the log phase of proliferative activity. Various concentrations of F-IRS added to each well, and incubation was continued for an additional 48 h. Then, 50 μL of MTT solution (2 mg/mL; Sigma) were added to all wells, and incubation was continued for another 2 h. The media containing MTT solution was removed, and the precipitated material was dissolved by adding 100 μL of DMSO. The absorbance was measured with a microplate reader at test and reference wavelengths of […], respectively. The percentage of growth is shown relative to untreated controls.

[2] = test system: H358 cells; experiment: MTT cell growth inhibition assay; assay type: cell-based; conditions: Homo sapiens, NCI-H358, H358 cells (WT EGFR), 48 h
Description: as §1

[3] = test system: H3255 cells; experiment: MTT cell growth inhibition assay; assay type: cell-based; conditions: Homo sapiens, NCI-H3255, H3255 cells (EGFR L858R mutant), 48 h
Description: as §1

[4] = test system: HCC827 cells; experiment: MTT cell growth inhibition assay; assay type: cell-based; conditions: Homo sapiens, HCC827 cells (19 exon deleted mutant EGFR), 48 h
Description: as §1

[5] = test system: H1975 cells; experiment: MTT cell growth inhibition assay; assay type: cell-based; conditions: Homo sapiens, NCI-H1975, H1975 cells (L858R and T790M EGFR mutations), 48 h
Description: as §1

[6] = test system: H358 cell line; design: method as in PMID 19826406; conditions: H358 (EGFR wild type); cited from earlier work
[7] = test system: H520 cells; design: method as in PMID 21152424; conditions: H520 (negative EGFR); cited from earlier work
[8] = test system: H1975; design: method as in PMID 15767641; conditions: H1975, L858R and T790M secondary mutation; cited from earlier work
[9] = test system: H520 cells; experiment: Cellular uptake and efflux assay; assay type: cell-based, human; conditions: 120 min of incubation
Description: (§2) Cells were trypsinized and seeded overnight in 12-well culture plates at a density of 1 × 10^5 cells per well (1 × 10^5 cells/1.0 mL/well). ^18F-IRS (37 kBq/1.0 mL/well) in 1 ml of serum free 1640 medium was added to each well and incubated at 37 °C for 15 min, 30 min, 60 min and 120 min. Triplicates were carried out for each time point. One milliliter of ice-cold PBS was used to intercept the uptake of tracer. The supernatants were aspirated and the cells were rinsed twice with 1 mL of ice-cold PBS to remove surface-bound radioactive ligand. After washing twice with PBS, the cells were harvested by the addition of 250 μl of 0.1 N NaOH. Efflux assays were performed after 120 min of incubation with ^18F-IRS and then the media was removed and replaced with serum free 1640 medium without ^18F-IRS. At 15 min, 30 min, 60 min and 120 min, the media was removed and the cells washed twice with ice-cold PBS. 200 μl of 0.1 N NaOH were added to […] the cells and then the wells were washed twice with 1 ml of ice-cold PBS. The cell solution and the PBS from each washed well were recovered and counted with CPM in a gamma counter (Wizard 2, PerkinElmer). The results were calculated using the same cellular uptake formula. For blocking experiments, gefitinib (100 μmol/L) was added to HCC827 cells. After 60 min of incubation, the uptake and efflux assays in HCC827 cells were repeated thrice.

[10] = test system: H358 cells; experiment: Cellular uptake and efflux assay; assay type: cell-based, human; conditions: 120 min of incubation
Description: as §2

[11] = test system: H1975 cells; experiment: Cellular uptake and efflux assay; assay type: cell-based, human; conditions: 120 min of incubation
Description: as §2

[12] = Biodistribution and clearance in normal organs of tumor-bearing mice; assay type: in vivo, BALB/c nude mice
Description: (§3) PET/CT imaging of tumor-bearing mice was performed on a clinical time-of-flight (TOF) 64-slice PET/Computed tomography (CT) scanner (Discovery 790 Elite, GE healthcare). The mice bearing tumors (for each group n = 4) were injected with 3.7 MBq (100 μCi) of ^18F-IRS into the tail vein. At 30 min, 60 min and 120 min after injection, the mice were anesthetized with 2% isoflurane and placed near the center of the field of view of the PET/CT scanner in prone position. For blocking studies, gefitinib (100 mg/kg) was injected into HCC827 xenografts nude mice (n = 4) via tail vein 60 min before PET/CT imaging. The mice were imaged as described above 120 min after injection.
(§4) Biodistribution studies were performed in BALB/c nude mice bearing HCC827, H1975, H358 and H520 xenografts by injecting 3.7MBq of ^18F-IRS into the tail vein (n = 4 per group) and then sacrificing the animals at 30 min, 60 min and 120 min after injection. Tumor and normal tissues were excised and weighed, and the radioactivity was measured using a gamma-counter (Wizard 2, PerkinElmer). All measurements were background-subtracted and decay-corrected to the time of injection and then averaged together. The radioactivity uptake in tumor and normal tissues was expressed as the percentage of the injected dose per gram of organ (% ID/g).

[13] = test system: HCC827 cells; experiment: Cellular uptake, efflux and blocking assay; assay type: cell-based, human; conditions: for cellular uptake: HCC827 cells
Description: as §2

[14] = test system: NSCLC with responsive EGFR exon 19 deleted; experiment: PET/CT examination of patients with NSCLC; assay type: in vivo, human
Excerpt: This study (ClinicalTrials.gov number, NCT03031522) was approved by the Medical Ethics Review Committee of the Fourth Hospital of Harbin Medical University. Subjects signed written informed consent after receiving an explanation of the study. The images provided in this article have been agreed by the subjects. The diagnosis was confirmed by histopathological examination. Three patients confirmed having NSCLC with responsive EGFR exon 19 deleted by histopathology participated in the study from January 2015 to February 2016 (Table 2). ^18F-IRS scans were performed on PET/CT (Discovery 790 Elite; GE healthcare). Approximately 222MBq (6 mCi) of ^18F-IRS was administered intravenously within 5 minutes. Scanning was in initiated 1 hour after administration of ^18F-IRS. Corresponding whole body CT scans for attenuation correction were acquired using a low-dose protocol. Consecutively, PET emission data were acquired in three-dimensional mode with a 200 × 200 matrix with 3 min emission time per bed position. The maximum standard uptake value (SUVmax) normalized to body weight […] was calculated within the region of interest with the following formula: [measured activity concentration (Bq/mL) · body weight (kg)]/injected activity (Bq). Calculation of the radioactivity concentration included the use of a calibration factor that converted the activity counts into becquerels, and the decay correction of the Advantage Workstation 4.6 workstation (GE Healthcare) was […].

[15] = test system: H358 xenografts; experiment: Ex vivo biodistribution, tumor uptake; assay type: in vivo, BALB/c nude mice; conditions: H358 tumors, 120 min after injection
Description: (§5) All animal studies were conducted in accordance with the China Guidelines for Animal Care and Ethic for Animal Experiments and the experimental protocols were approved by the Animal Use and Care Committee of Harbin Medical University. Female BALB/c nude mice (from the Shanghai Slack Experimental Animal Center of qualified animals SCXK) approximately 4–6 weeks of age and mean weight 20–22 g were used. Approximately 5 × 10^6 of cultured HCC827, H1975, H358 and H520 cells were suspended in PBS/Matrigel (1:1) (BD Bioscience) and subcutaneously implanted in the right shoulders of Female BALB/c nude mice. PET/CT studies were performed when the tumor volume reached 250 mm^3 (4–6 weeks after inoculation).
as §4

[16] = test system: HCC827 xenografts; experiment: Ex vivo biodistribution, tumor uptake; assay type: in vivo, BALB/c nude mice
Description: as §5, §4

[17] = test system: H520 xenografts; experiment: Ex vivo biodistribution, tumor uptake; assay type: in vivo, BALB/c nude mice; conditions: H520 tumors, 120 min after injection
Description: as §5, §4

[18] = test system: H1975 xenografts; experiment: In vivo PET/CT imaging of tumor-bearing mice; design: species or system BALB/c nude mice; conditions: H1975 tumors, all time points
Description: as §5, §3
(§6) The images were reconstructed using a two-dimensional ordered-subset expectation maximization (OSEM) algorithm. For each scan, regions of interest (ROIs) were drawn over the tumor and major organs using the AW4.6 software (GE Healthcare) on decay-corrected whole-body coronal images. The radioactivity concentrations (accumulations) within the tumor, muscle were obtained from mean pixel values within the multiple ROI volumes and then converted to megabecquerels per milliliter per minute using the calibration factor determined for the PET system. These values were then divided by the administered activity to obtain (assuming a tissue density of 1 g/ml) an image ROI-derived percent injected dose per gram (% ID/g).

[19] = test system: H358 xenografts; experiment: In vivo PET/CT imaging of tumor-bearing mice; design: species or system BALB/c nude mice; conditions: H358 tumors, all time points
Description: as §5, §3, §6

[20] = test system: H520 xenografts; experiment: In vivo PET/CT imaging of tumor-bearing mice; design: species or system BALB/c nude mice; conditions: H520 tumors, all time points
Description: as §5, §3, §6

[21] = test system: HCC827 xenografts; experiment: In vivo PET/CT imaging and blocking of tumor-bearing mice; design: species or system BALB/c nude mice
Description: as §5, §3, §6

[22] = Mean ± SD of three patients, 60 min after injection
[23] = patient 1, 60 min after injection
[24] = patient 2, 60 min after injection
[25] = patient 3, 60 min after injection
[26] = HCC827 tumors, 120 min after i.v. injection of 3.7 MBq

`FCCOCCOCCOCCOc1cc2ncnc(Nc3ccc(F)c(Cl)c3)c2cc1OCCCN1CCOCC1` [F-IRS] gave an IC50 [1] of 18400 ± 2210 nM, an IC50 [2] of 7050 ± 2300 nM and an IC50 [3] of 13.1 ± 4.4 nM. It also gave an IC50 [4] of 5.6 ± 0.2 nM and an IC50 [5] of 2270 ± 1170 nM.
For `COc1cc2ncnc(Nc3ccc(F)c(Cl)c3)c2cc1OCCCN1CCOCC1` [gefitinib], the “sensitivity of cell line” value [6] is listed as “less sensitive”, the “sensitivity of cell line” value [7] is listed as “do not respond” and the “sensitivity of cell line” value [8] is listed as “conferring resistance”.
For `Fc1ccc(Nc2ncnc3cc(OCCOCCOCCOCC[18F])c(OCCCN4CCOCC4)cc23)cc1Cl` [^18F-IRS], the cellular uptake [9] was 2.31 ± 0.36%, the cellular uptake [10] was 1.82 ± 0.19% and the cellular uptake [11] was 1.49 ± 0.05%. The route of elimination ([12]; mice, PET/CT imaging and biodistribution) was “mainly eliminated through renal clearance”, the “uptake in all other organs and blood” value ([12]; tumor-bearing nude mice, except kidneys, intestine and gallbladder) was “very low” and the “cellular uptake after blocking” value ([13]; HCC827 cells treated with 100 μmol/L gefitinib, 120 min of incubation) was 0.89 ± 0.12%. It also gave a cellular uptake ([13]; 15 min of incubation) of 7.51 ± 1.05%, a cellular uptake ([13]; 30 min of incubation) of 10.03 ± 0.47% and a cellular uptake ([13]; 120 min of incubation) of 14.07 ± 0.98%. The “SUVmax Bladder” value [14, 22] was 5.11 ± 3.02, the “SUVmax Brain” value [14, 22] was 0.43 ± 0.29 and the “SUVmax Kidneys” value [14, 22] was 13.13 ± 0.31. For the same molecule, the “SUVmax Liver” value [14, 22] was 10.48 ± 0.44, the “SUVmax Lungs” value [14, 22] was 0.82 ± 0.23 and the “SUVmax Muscles” value [14, 22] was 0.65 ± 0.14. For the same molecule, the “SUVmax Small intestines” value [14, 22] was 8.05 ± 1.67, the “SUVmax Tumor” value [14, 22] was 2.44 ± 0.49 and the “SUVmax Bladder” value [14, 23] was 8.51. For the same molecule, the “SUVmax Brain” value [14, 23] was 0.19, the “SUVmax Kidneys” value [14, 23] was 12.96 and the “SUVmax Liver” value [14, 23] was 10.52. For the same molecule, the “SUVmax Lungs” value [14, 23] was 0.58, the “SUVmax Muscles” value [14, 23] was 0.73 and the “SUVmax Small intestines” value [14, 23] was 7.17. The “SUVmax Tumor” value [14, 23] was 2.19, the “SUVmax Bladder” value [14, 24] was 4.11 and the “SUVmax Brain” value [14, 24] was 0.76. The “SUVmax Kidneys” value [14, 24] was 13.49, the “SUVmax Liver” value [14, 24] was 10.9 and the “SUVmax Lungs” value [14, 24] was 1.04. For the same molecule, the “SUVmax Muscles” value [14, 24] was 0.75, the “SUVmax Small intestines” value [14, 24] was 9.99 and the “SUVmax Tumor” value [14, 24] was 2.12. The “SUVmax Bladder” value [14, 25] was 2.72, the “SUVmax Brain” value [14, 25] was 0.34 and the “SUVmax Kidneys” value [14, 25] was 12.95. The “SUVmax Liver” value [14, 25] was 10.02, the “SUVmax Lungs” value [14, 25] was 0.85 and the “SUVmax Muscles” value [14, 25] was 0.49. The “SUVmax Small intestines” value [14, 25] was 7.01, the “SUVmax Tumor” value [14, 25] was 3.01 and the “main route of elimination” value ([14]; patients with NSCLC) was “urinary tract, followed by the hepatobiliary”. The “changes in heart rates, respiration rates, and blood pressure” value ([14]; patients with NSCLC, after i.v. injection) was “no significant changes”, the “tumor uptake (ex vivo biodistribution)” value [15] was 1.68 ± 0.29 % ID/g and the “tumor uptake (ex vivo biodistribution)” value [16, 26] was 4.27 ± 0.15 % ID/g. The “tumor uptake (ex vivo biodistribution) after blocking” value ([16]; HCC827 xenografts blocked by gefitinib 100 mg/kg, 120 min) was 1.12 ± 0.21 ID/g, the “tumor uptake (ex vivo biodistribution)” value [17] was 1.62 ± 0.08 % ID/g and the “tumor uptake on PET/CT images” value [18] was “unobviously detectable”. For the same molecule, the “tumor uptake on PET/CT images” value [19] was “unobviously detectable”, the “tumor uptake on PET/CT images” value [20] was “unobviously detectable” and the “accumulation in tumors on PET/CT images” value [21, 26] was “significantly high accumulation”. The “tumor/muscle ratio (PET quantification)” value ([21]; HCC827 vs H1975, H358 and H520 xenografts, 120 min, P < 0.01) was “significantly higher” and the “tumor uptake on PET/CT after blocking” value ([21]; HCC827 xenografts, gefitinib 100 mg/kg before imaging, 120 min) was “blocked by gefitinib”.
